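Where inhibition never reached the appropriate level, the endpoint shown equals the highest concentration tested. Otherwise, values were interpolated linearly from a five-concentration, 48-hour dose response in 96-well plates. The concentration for full growth arrest is given as TGI.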

In PubChem BioAssay (NCI) one finds TGI data, which are given here for twelve compounds.

Some test systems named below: UACC-257 melanoma; MDA-MB-435; TK-10 renal; SW-620 colon; SK-MEL-2 melanoma; SK-MEL-5 melanoma; NCI-H226 lung; NCI/ADR-RES ovarian; M14 melanoma; UACC-62 melanoma; HT29 colon.
Experiment in all cases: NCI-60 cell line screen, 48 h

`CN1CCc2c([nH]c3ccccc23)C1`: the TGI in the experiment with UACC-257 melanoma, in the experiment with MDA-MB-435, with TK-10 renal, in the experiment with SW-620 colon, in the experiment on SK-MEL-2 melanoma and in the experiment on SK-MEL-5 melanoma was more than 100 µM throughout. The TGI in the experiment on NCI-H226 lung, with NCI/ADR-RES ovarian, in the experiment on M14 melanoma, in the experiment with UACC-62 melanoma and in the experiment on HT29 colon was more than 100 µM each time.

`Cc1ccc2c(c1)C(=S)N1CSCC1c1nncn1-2` (stereo not drawn): the TGI in the experiment with UACC-257 melanoma, in the experiment on MDA-MB-435, with TK-10 renal, in the experiment with SW-620 colon, in the experiment on SK-MEL-2 melanoma and with SK-MEL-5 melanoma was more than 100 µM throughout. For the same compound, the TGI in the experiment on NCI-H226 lung, in the experiment with NCI/ADR-RES ovarian, in the experiment with M14 melanoma, in the experiment with UACC-62 melanoma and in the experiment with HT29 colon was more than 100 µM in each case.

For the compound `O=C1Sc2cc3ccccc3cc2C(=O)Sc2ccc(Br)cc21`, the TGI in the experiment with UACC-257 melanoma worked out at 17.6 µM; in the experiment with MDA-MB-435, 13.4 µM; in the experiment on TK-10 renal it was 17.8 µM; with SW-620 colon it was 14.2 µM; with SK-MEL-2 melanoma, 12.8 µM; in the experiment on SK-MEL-5 melanoma, 27.5 µM. Moreover, the TGI stood at 42.6 µM in the experiment with NCI-H226 lung; 15.6 µM in the experiment with NCI/ADR-RES ovarian; 14.4 µM in the experiment on M14 melanoma; 10.5 µM in the experiment on UACC-62 melanoma; 13.1 µM in the experiment on HT29 colon.

Consider `COc1cc(C2c3cc4c(cc3OC(N3CCCCC3)C2C)OCO4)cc(OC)c1O` (stereo not drawn), for which the TGI with UACC-257 melanoma is 41.9 µM; with MDA-MB-435 it was 5.92 µM; in the experiment on TK-10 renal it was 38.5 µM; in the experiment with SW-620 colon, 21.9 µM; in the experiment on SK-MEL-2 melanoma, 25.2 µM; in the experiment with SK-MEL-5 melanoma, 19.8 µM. In addition, the TGI with NCI-H226 lung is more than 64.2 µM; in the experiment with NCI/ADR-RES ovarian, 18.5 µM; in the experiment on M14 melanoma, more than 69.4 µM; in the experiment on HT29 colon, more than 37.5 µM.

For the compound `Cn1c(=O)c2c(ncn2CCNC(CO)C(O)c2ccc([N+](=O)[O-])cc2)n(C)c1=O` (stereo not drawn), the TGI with UACC-257 melanoma, in the experiment on MDA-MB-435, in the experiment with TK-10 renal, in the experiment with SK-MEL-2 melanoma, in the experiment on SK-MEL-5 melanoma and in the experiment on NCI-H226 lung was more than 100 µM throughout. Besides, the TGI with NCI/ADR-RES ovarian, in the experiment on M14 melanoma, in the experiment on UACC-62 melanoma and in the experiment on HT29 colon was more than 100 µM throughout.

As for `COC(=O)/C=C(\C(=O)OC)C1C(=O)Oc2c(C)c(=O)c3ccccc3n21` (stereo not drawn), the TGI in the experiment on UACC-257 melanoma, in the experiment with MDA-MB-435, in the experiment on TK-10 renal, in the experiment on SW-620 colon, with SK-MEL-2 melanoma and in the experiment on SK-MEL-5 melanoma was more than 100 µM in each case. Further, the TGI with NCI-H226 lung, with NCI/ADR-RES ovarian, in the experiment with M14 melanoma, with UACC-62 melanoma and in the experiment with HT29 colon was more than 100 µM each time.

In the case of `N#Cc1n[nH]n(-c2ccc(Br)cc2)c1=O`, the TGI with UACC-257 melanoma, in the experiment on MDA-MB-435, with TK-10 renal, with SW-620 colon, in the experiment on SK-MEL-2 melanoma and in the experiment with NCI-H226 lung was more than 100 µM in each case. Besides, the TGI with NCI/ADR-RES ovarian, in the experiment with M14 melanoma, with UACC-62 melanoma and in the experiment with HT29 colon was more than 100 µM throughout.

Consider `O=c1[nH]cnc2c1cnn2Cc1cn(CCCCO)nn1`, for which the TGI with UACC-257 melanoma, with MDA-MB-435, with TK-10 renal, in the experiment on SW-620 colon, in the experiment with SK-MEL-2 melanoma and in the experiment on SK-MEL-5 melanoma was more than 100 µM each time. The TGI in the experiment with NCI-H226 lung, in the experiment with NCI/ADR-RES ovarian, with M14 melanoma, in the experiment on UACC-62 melanoma and in the experiment with HT29 colon was more than 100 µM throughout.

For the compound `O=C(O)C(O)C(O)C(O)C(O)c1nc2ccccc2s1` (stereo not drawn), the TGI in the experiment on UACC-257 melanoma amounted to 30.9 µM; in the experiment on MDA-MB-435, 31.8 µM; in the experiment on TK-10 renal, 29.3 µM; in the experiment with SW-620 colon it was 54.7 µM; in the experiment on SK-MEL-2 melanoma, 36.5 µM; in the experiment on SK-MEL-5 melanoma it was 74.1 µM. For the same compound, the TGI in the experiment with NCI-H226 lung is 66.4 µM; in the experiment with NCI/ADR-RES ovarian, more than 100 µM; in the experiment with M14 melanoma, 45.7 µM; with UACC-62 melanoma it was 28.8 µM; in the experiment with HT29 colon, 41.9 µM.

`Cc1ccc(C2SCC(=O)N2c2ccc(-n3c(-c4ccccc4)nc4ccccc4c3=O)cc2)cc1` (stereo not drawn): the TGI with UACC-257 melanoma is 69.8 µM; in the experiment on MDA-MB-435, 65.3 µM; in the experiment with TK-10 renal it was more than 100 µM; with SW-620 colon it was more than 100 µM; with SK-MEL-2 melanoma, 51.3 µM; in the experiment with SK-MEL-5 melanoma it was 31.9 µM. Moreover, the TGI was determined as 57.3 µM with NCI-H226 lung; 63.1 µM in the experiment on NCI/ADR-RES ovarian; 69.2 µM with M14 melanoma; 51.5 µM with UACC-62 melanoma; 61.1 µM in the experiment on HT29 colon.

In the case of `COC(=O)C1=C(OC(=O)/C(=C/c2ccc(Cl)cc2)c2ccc(Cl)cc2)C(C(=O)OC)[C@@]2(O)[C@@H](C(=O)OC)[C@H](C)C[C@@H]1[C@@H]2C(=O)OC` (stereo partly drawn), the TGI in the experiment with UACC-257 melanoma, in the experiment on MDA-MB-435, with TK-10 renal, in the experiment with SW-620 colon, in the experiment on SK-MEL-2 melanoma and in the experiment on SK-MEL-5 melanoma was more than 100 µM each time. The TGI in the experiment on NCI-H226 lung, in the experiment on NCI/ADR-RES ovarian, in the experiment on M14 melanoma, in the experiment with UACC-62 melanoma and with HT29 colon was more than 100 µM throughout.

Consider `CCCC(=O)NC(NC1CCCCC1)(C(=O)OCC)C(F)(F)F` (stereo not drawn), for which the TGI with UACC-257 melanoma, in the experiment on MDA-MB-435, with TK-10 renal, with SW-620 colon, in the experiment on SK-MEL-2 melanoma and in the experiment with SK-MEL-5 melanoma was more than 100 µM each time. Further, the TGI with NCI-H226 lung, with NCI/ADR-RES ovarian, in the experiment with M14 melanoma and with HT29 colon was more than 100 µM in each case.
